Earlier results as cited in patent US20080185562A1, “Oxalate ester chemiluminescent light system” (Tianjin Dragon Chemiluminescent Tubes Co., Ltd., priority 2007, published 2008).

Columns and labels:
[1] = PEG value depends on molecular weight
rats = conditions: rat
[2] = at 122° C.

Structure (SMILES) | Toxicity (LD50 oral, mg/kg) (mus) | Flash point (° C./° F.) [1] | Toxicity (LD50 oral, mg/kg) (rats) | Vapor pressure (kPa) [2]
OCCCO [1,3-propylene glycol] | 4,770 (mus) mg/kg | 79/174 |  | 
CCCCOCCOCCOCCCC [dibutyl diethylene glycol ether] |  | 117/243 | 3,900 (rat) mg/kg | 1.33 at 122 °C kPa
